Experimental data from ChEMBL document CHEMBL1201862, “PubChem BioAssay data set” (2004).
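Compound exposure: 48 hours, 5 concentrations, 96-well plates. Here, GI50 denotes the concentration required for 50% inhibition of growth.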 Active and inactive are the calls of the source. Cut-off read from the data, not from the text of the source: active = GI50 up to about 1.1 µM and inactive = higher.

Columns and labels:
Assay in all cases: NCI-60 cell line screen, 48 h
[1] = tested on: A498
[2] = tested on: A549
[3] = tested on: ACHN
[4] = tested on: CCRF-CEM
[5] = tested on: COLO 205
[6] = tested on: HCT-15
[7] = tested on: HOP-62
[8] = tested on: K562
[9] = tested on: LOX IMVI
[10] = tested on: MOLT-4
[11] = tested on: NCI-H460
[12] = tested on: NCI-H522
[13] = tested on: OVCAR-3
[14] = tested on: OVCAR-4
[15] = tested on: SF-539
[16] = tested on: SN12C
[17] = tested on: SW-620
[18] = tested on: TK-10
[19] = tested on: U-251
[20] = tested on: UO-31

COc1ccc(-c2c(-c3ccccc3)c(C)nc3[nH]c(=S)[nH]c(=S)c23)cc1OC
GI50 [1]: 28.2 µM (inactive)
GI50 [2]: 30.3 µM (inactive)
GI50 [3]: 30.3 µM (inactive)
GI50 [4]: 24.7 µM (inactive)
GI50 [5]: 25.3 µM (inactive)
GI50 [6]: 30.9 µM
GI50 [7]: 33.1 µM (inactive)
GI50 [8]: 31.2 µM (inactive)
GI50 [9]: 28.2 µM (inactive)
GI50 [10]: 12 µM (inactive)
GI50 [11]: 24.3 µM (inactive)
GI50 [12]: 27.1 µM (inactive)
GI50 [13]: 20.3 µM (inactive)
GI50 [14]: > 100 µM (inactive)
GI50 [15]: 19.8 µM (inactive)
GI50 [16]: 21.6 µM (inactive)
GI50 [17]: 61.7 µM (inactive)
GI50 [18]: 45.7 µM (inactive)
GI50 [19]: 33.4 µM (inactive)
GI50 [20]: 21.6 µM (inactive)

O=C1/C(=c2\c3ccccc3n3c(=O)c4ccccc4nc23)Nc2ccccc21 [CANDIDINE]
GI50 [1]: > 100 µM (inactive)
GI50 [2]: > 84.5 µM (inactive)
GI50 [3]: > 100 µM (inactive)
GI50 [4]: > 100 µM (inactive)
GI50 [5]: 58.5 µM (inactive)
GI50 [6]: > 100 µM
GI50 [7]: > 70.5 µM (inactive)
GI50 [8]: > 84.5 µM (inactive)
GI50 [9]: > 72.8 µM (inactive)
GI50 [10]: > 31.6 µM (inactive)
GI50 [11]: 43.5 µM (inactive)
GI50 [12]: > 100 µM (inactive)
GI50 [13]: 45.9 µM (inactive)
GI50 [14]: > 100 µM (inactive)
GI50 [15]: > 63 µM (inactive)
GI50 [16]: > 100 µM (inactive)
GI50 [17]: > 100 µM (inactive)
GI50 [18]: > 100 µM (inactive)
GI50 [19]: > 93.8 µM (inactive)
GI50 [20]: > 21.5 µM (inactive)

C/C1=C\C=C(\C(C)C)CC/C(C(=O)O)=C\CC/C(C)=C/CC1 [NEOCROTOCEMBRANEIC ACID]
GI50 [1]: 17.6 µM (inactive)
GI50 [2]: 30.2 µM (inactive)
GI50 [3]: 34.3 µM (inactive)
GI50 [4]: 19.5 µM (inactive)
GI50 [5]: 23.4 µM (inactive)
GI50 [6]: 21.4 µM
GI50 [7]: 22.8 µM (inactive)
GI50 [8]: 26.1 µM (inactive)
GI50 [9]: 20.5 µM (inactive)
GI50 [10]: 19.1 µM (inactive)
GI50 [11]: 17.7 µM (inactive)
GI50 [12]: 19.3 µM (inactive)
GI50 [13]: 16.6 µM (inactive)
GI50 [14]: 33.4 µM (inactive)
GI50 [15]: 18.5 µM (inactive)
GI50 [16]: 21.2 µM (inactive)
GI50 [17]: 35.8 µM (inactive)
GI50 [18]: 31.8 µM (inactive)
GI50 [19]: 16.9 µM (inactive)
GI50 [20]: 30.3 µM (inactive)
